From PubChem BioAssay (NCI)
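Following 48 hours of exposure in 96-well plates, responses at five concentrations were used to interpolate endpoints linearly. GI50 marks 50% less growth. TGI marks complete inhibition of growth.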

Legend:
Test in all cases: NCI tumour cell line growth inhibition, 48 h
K-562 leukemia = test system: K-562 leukemia
UACC-257 melanoma = test system: UACC-257 melanoma
SR leukemia = test system: SR leukemia
KM12 colon = test system: KM12 colon
T-47D breast = test system: T-47D breast
HT29 colon = test system: HT29 colon
EKVX NSCLC = test system: EKVX NSCLC
SNB-19 CNS = test system: SNB-19 CNS
SK-MEL-5 melanoma = test system: SK-MEL-5 melanoma
RXF 393 renal = test system: RXF 393 renal
UO-31 renal = test system: UO-31 renal
786-0 renal = test system: 786-0 renal
U251 CNS = test system: U251 CNS
A498 renal = test system: A498 renal
NCI-H522 lung = test system: NCI-H522 lung
MDA-MB-231 breast = test system: MDA-MB-231 breast
ACHN renal = test system: ACHN renal
MDA-MB-435 = test system: MDA-MB-435
MCF7 breast = test system: MCF7 breast
TK-10 renal = test system: TK-10 renal
UACC-62 melanoma = test system: UACC-62 melanoma
PC-3 prostate = test system: PC-3 prostate
A549 NSCLC = test system: A549 NSCLC
HOP-92 NSCLC = test system: HOP-92 NSCLC
SK-MEL-2 melanoma = test system: SK-MEL-2 melanoma
SNB-75 CNS = test system: SNB-75 CNS
NCI/ADR-RES ovarian = test system: NCI/ADR-RES ovarian
MALME-3M melanoma = test system: MALME-3M melanoma
OVCAR-3 ovarian = test system: OVCAR-3 ovarian
OVCAR-8 ovarian = test system: OVCAR-8 ovarian
HCT-15 colon = test system: HCT-15 colon
BT-549 breast = test system: BT-549 breast
SW-620 colon = test system: SW-620 colon
IGROV1 ovarian = test system: IGROV1 ovarian
DU-145 prostate = test system: DU-145 prostate
HL-60(TB) leukemia = test system: HL-60(TB) leukemia
OVCAR-4 ovarian = test system: OVCAR-4 ovarian
COLO 205 colon = test system: COLO 205 colon
SF-268 CNS = test system: SF-268 CNS
SK-OV-3 ovarian = test system: SK-OV-3 ovarian
NCI-H226 lung = test system: NCI-H226 lung
SK-MEL-28 melanoma = test system: SK-MEL-28 melanoma
HCC-2998 colon = test system: HCC-2998 colon
LOX IMVI melanoma = test system: LOX IMVI melanoma
HS 578T breast = test system: HS 578T breast
RPMI-8226 leukemia = test system: RPMI-8226 leukemia
CCRF-CEM leukemia = test system: CCRF-CEM leukemia
M14 melanoma = test system: M14 melanoma
HCT-116 colon = test system: HCT-116 colon
HOP-62 NSCLC = test system: HOP-62 NSCLC
NCI-H23 lung = test system: NCI-H23 lung
MOLT-4 leukemia = test system: MOLT-4 leukemia
SF-295 CNS = test system: SF-295 CNS
SN12C renal = test system: SN12C renal
NCI-H460 lung = test system: NCI-H460 lung
SF-539 CNS = test system: SF-539 CNS
OVCAR-5 ovarian = test system: OVCAR-5 ovarian

COc1cc(NC(=O)c2cc(OC)c3ccn(C)c3c2)cc2c1C[C@]1(C)CC[C@@H](O)C(C)(C)[C@H]1O2
GI50 (K-562 leukemia): 3.82 µM | TGI (K-562 leukemia): 39.3 µM | GI50 (UACC-257 melanoma): 7.6 µM | TGI (UACC-257 melanoma): > 100 µM | GI50 (SR leukemia): 2.96 µM | TGI (SR leukemia): > 100 µM | GI50 (KM12 colon): 9.92 µM | TGI (KM12 colon): > 100 µM | GI50 (T-47D breast): 10.3 µM | TGI (T-47D breast): > 100 µM | GI50 (HT29 colon): 7.24 µM | TGI (HT29 colon): > 100 µM | GI50 (EKVX NSCLC): 11.3 µM | TGI (EKVX NSCLC): > 100 µM | GI50 (SNB-19 CNS): 25.3 µM | TGI (SNB-19 CNS): > 100 µM | GI50 (SK-MEL-5 melanoma): 2.87 µM | TGI (SK-MEL-5 melanoma): 9.08 µM | GI50 (RXF 393 renal): 0.759 µM | TGI (RXF 393 renal): 4.28 µM | GI50 (UO-31 renal): 2.46 µM | TGI (UO-31 renal): 5.78 µM | GI50 (786-0 renal): 1.29 µM | TGI (786-0 renal): 4.08 µM | GI50 (U251 CNS): 4.05 µM | TGI (U251 CNS): > 100 µM | GI50 (A498 renal): 2.85 µM | TGI (A498 renal): 7.15 µM | GI50 (NCI-H522 lung): 20.6 µM | TGI (NCI-H522 lung): > 100 µM | GI50 (MDA-MB-231 breast): 7.73 µM | TGI (MDA-MB-231 breast): 41.8 µM | GI50 (ACHN renal): 5.31 µM | TGI (ACHN renal): > 100 µM | GI50 (MDA-MB-435): 9.08 µM | TGI (MDA-MB-435): 43.6 µM | GI50 (MCF7 breast): 4.68 µM | TGI (MCF7 breast): 65.9 µM | GI50 (TK-10 renal): 35.9 µM | TGI (TK-10 renal): > 100 µM | GI50 (UACC-62 melanoma): 4.31 µM | TGI (UACC-62 melanoma): 49.6 µM | GI50 (PC-3 prostate): 6.17 µM | TGI (PC-3 prostate): > 100 µM | GI50 (A549 NSCLC): 10.3 µM | TGI (A549 NSCLC): > 100 µM | GI50 (HOP-92 NSCLC): 4.11 µM | TGI (HOP-92 NSCLC): 32.3 µM | GI50 (SK-MEL-2 melanoma): 6.1 µM | TGI (SK-MEL-2 melanoma): 64.6 µM | GI50 (SNB-75 CNS): 1.89 µM | TGI (SNB-75 CNS): 40.8 µM | GI50 (NCI/ADR-RES ovarian): 29.3 µM | TGI (NCI/ADR-RES ovarian): > 100 µM | GI50 (MALME-3M melanoma): 6.22 µM | TGI (MALME-3M melanoma): 70.5 µM | GI50 (OVCAR-3 ovarian): 12.6 µM | TGI (OVCAR-3 ovarian): > 100 µM | GI50 (OVCAR-8 ovarian): 26 µM | TGI (OVCAR-8 ovarian): > 100 µM | GI50 (HCT-15 colon): 5.13 µM | TGI (HCT-15 colon): > 100 µM | GI50 (BT-549 breast): 2.98 µM | TGI (BT-549 breast): > 100 µM | GI50 (SW-620 colon): 11.2 µM | TGI (SW-620 colon): > 100 µM | GI50 (IGROV1 ovarian): 21.2 µM | TGI (IGROV1 ovarian): > 100 µM | GI50 (DU-145 prostate): 9.08 µM | TGI (DU-145 prostate): > 100 µM | GI50 (HL-60(TB) leukemia): 3.49 µM | TGI (HL-60(TB) leukemia): 14.7 µM | GI50 (OVCAR-4 ovarian): 37.6 µM | TGI (OVCAR-4 ovarian): > 100 µM | GI50 (COLO 205 colon): 6.12 µM | TGI (COLO 205 colon): 51.5 µM | GI50 (SF-268 CNS): 9.09 µM | TGI (SF-268 CNS): > 100 µM | GI50 (SK-OV-3 ovarian): 6.41 µM | TGI (SK-OV-3 ovarian): > 100 µM | GI50 (NCI-H226 lung): 26.5 µM | TGI (NCI-H226 lung): > 100 µM | GI50 (SK-MEL-28 melanoma): 5.29 µM | TGI (SK-MEL-28 melanoma): > 100 µM | GI50 (HCC-2998 colon): 13.4 µM | TGI (HCC-2998 colon): > 100 µM | GI50 (LOX IMVI melanoma): 4.08 µM | TGI (LOX IMVI melanoma): 19 µM | GI50 (HS 578T breast): 2.33 µM | TGI (HS 578T breast): 9.34 µM | GI50 (RPMI-8226 leukemia): 1.35 µM | TGI (RPMI-8226 leukemia): 6.9 µM | GI50 (CCRF-CEM leukemia): 3.75 µM | TGI (CCRF-CEM leukemia): > 100 µM | GI50 (M14 melanoma): 2.91 µM | TGI (M14 melanoma): 14 µM | GI50 (HCT-116 colon): 4.02 µM | TGI (HCT-116 colon): > 100 µM | GI50 (HOP-62 NSCLC): 8.78 µM | TGI (HOP-62 NSCLC): > 100 µM | GI50 (NCI-H23 lung): 17.3 µM | TGI (NCI-H23 lung): > 100 µM | GI50 (MOLT-4 leukemia): 2.98 µM | TGI (MOLT-4 leukemia): 15 µM | GI50 (SF-295 CNS): 1.01 µM | TGI (SF-295 CNS): 2.95 µM | GI50 (SN12C renal): 27.9 µM | TGI (SN12C renal): > 100 µM | GI50 (NCI-H460 lung): 5.24 µM | TGI (NCI-H460 lung): > 100 µM | GI50 (SF-539 CNS): 1.37 µM | TGI (SF-539 CNS): 18.8 µM | GI50 (OVCAR-5 ovarian): 27.3 µM | TGI (OVCAR-5 ovarian): > 100 µM
